Experimental data from patent US11530196B2, “Pyrimidine compound acting on EGFR and ERBB2” (CHINA RESOURCES PHARMACEUTICAL HOLDINGS COMPANY LIMITED, priority 2019, dated 2022).
pIC50: −log10 of the molar value.

Legend:
[1] = target: T1, Wild-type EGFR enzymes (Homo sapiens, UniProt P00533); experiment: Kinase assay (HTRF KinEASE TK), EGFR WT; assay type: biochemical; settings: read-out: Enzyme IC50
T1 construct: purchased Invitrogen PR7295B
Source text: To detect the inhibitory effect of compounds on EGFR WT, EGFR (D770_N771insNPG), ERBB2 (V777_G778ins>CG), EGFR T790M/L858R enzyme activities
EGFR WT (Invitrogen, Cat. No. PR7295B), EGFR [L858R] (Invitrogen, Cat. No. PR7447A), EGFR [d746-750] (Invitrogen, Cat. No. PV6179), ATP (Sigma, Cat. No. A7699-1G), DMSO (Sigma, Cat. No. D2650), DTT (Sigma, Cat. No. 43815), 384-well plate, compound dilution plate (Greiner, Cat. No. 781280), 384-well plate, test plate (Perkin Elmer, Cat. No. 6007299), HTRF KinEASE TK Kit (Cisbio, Cat. No. 62TK0PEB), magnesium chloride (Sigma, Cat. No. M1028), Orthovanadate (Sigma, Cat. No. 56508), BSA (Sigma, Cat. No. A7030), HEPES (Life technology, Cat. No. 11344-041).
The final test concentrations of the test compounds ranged from 10 μM to 0.17 nM in 3-fold gradient dilutions at 11 concentrations.
The preparation of the buffer, 50 mM HEPES (pH 7.5), 0.01% BSA, 5 mM MgCl2, and 0.1 mM Orthovanadate were contained in the buffer. After the preparation of the buffer, the enzyme and substrate were mixed with pre-diluted prepared compounds of different concentrations, and the mixture was placed at room temperature for 15 minutes. […] After the reaction was completed, the antibody was added to the assay, incubated at room temperature for 60 minutes and then detected by Envision (plate reading instrument), and data were collected. […]

[2] = Pharmacokinetic study, single intravenous and oral administration in Beagle dogs; assay type: in vivo; settings: dog, plasma; for AUC(0-t): read-out: Exposure of AUC0-last
Procedure: (§1) The purpose of this experiment was to investigate the pharmacokinetics (PK) of the compounds in different species after single intravenous and single oral administration of the test compounds.
(§2) After intravenous or oral administration, blood samples were collected from the animals, and the actual time of blood collection was recorded. After the blood samples were collected, the samples were immediately transferred to the labelled centrifuge tube containing K2-EDTA, and then centrifuged to obtain plasma. Plasma was transferred to pre-cooled centrifuge tubes, quick-frozen in dry ice and stored in an ultra-low temperature refrigerator at −70±10° C. until LC-MS/MS analysis was performed.
(§3) The plasma drug concentration data of the compounds were processed using pharmacokinetic software with a non-compartmental model. The peak concentration (Cmax) and time to peak (Tmax), as well as the quantifiable end time were obtained directly from the plasma concentration-time curve. The following pharmacokinetic parameters were calculated using the log-linear trapezoidal method: half-life (T1/2), apparent volume of distribution (Vdss), and clearance (Cl), area under the time-plasma concentration curve from point 0 to the end time point (AUC0-last), and initial concentration (C0).

[3] = Pharmacokinetic study, single intravenous and oral administration in mice; assay type: in vivo; settings: mouse, plasma
Procedure: as §1, §2, §3

[4] = system: Ba/F3 (EGFR-D770_N771insSVD) subcutaneous allograft tumor; experiment: Ba/F3 EGFR D770_N771 ins SVD subcutaneous allograft tumor model; assay type: in vivo, Nude mouse (BALB/c Nude)
Procedure: Ba/F3 (EGFR-D770_N771insSVD) cells were artificially constructed cell lines with EGFR-D770_N771insSVD insertion mutation using mouse B cells. The CDX model established by this cell line was used to evaluate the inhibitory effect of preferred compounds on Exon 20 EGFR-D770_N771insSVD insertion mutation in animals.
Nude mouse (BALB/c Nude), Ba/F3 (EGFR-D770_N771insSVD) cell line
1. Cell culture: cells were cultured in vitro in monolayer, culture conditions were RPMI-1640 (cell culture medium) with 10% fetal bovine serum, 100 U/mL penicillin and 100 µg/mL streptomycin, the cells were cultured at a 37° C., 5% CO2 incubator. Conventional digestion with trypsin-EDTA was performed twice a week for passage. When the saturation of Ba/F3 (EGFR-D770_N771insSVD) cell was 80%-90%, and the number reached the requirement, the cells were harvested and counted. The density was 5×10^6 cells.
2. Cell inoculation: 0.2 mL (containing 5×10^6 cells) of Ba/F3 (EGFR-D770_N771insSVD) cell suspension (PBS:Matrigel=1:1) was inoculated subcutaneously on the right back of each mouse, for a total of 64 mice. On the 7th day after inoculation, when the average tumor volume reached 133 mm^3, the randomized stratified grouping method was used to start the grouping administration according to the tumor volume and animal weight. PBS was phosphate buffer and Matrigel was matrix.
3. Administration: The dose was 0-7 days: 10 mg/kg, 8-21 days: 40 mg/kg; oral administration; administration frequency: once a day×3 weeks.
Tumor diameters were measured with vernier calipers twice a week. The calculation formula of tumor volume was: V=0.5a×b^2, wherein a and b represented the long and short diameters of the tumor, respectively.
The antitumor efficacy of the compounds was evaluated by TGI (%) or relative tumor proliferation rate T/C (%).
Relative tumor proliferation rate T/C (%)=TRTV/CRTV×100% (TRTV: mean RTV in the treatment group; CRTV: mean RTV in the solvent control group).
The relative tumor volume (RTV) was calculated according to the results of tumor measurement. The calculation formula was RTV=Vt/V0, wherein V0 was the tumor volume measured at the time of group administration (i.e., D0), and Vt was the tumor volume corresponding to a certain measurement. TRTV and CRTV were taken on the same day.
TGI (%), reflecting the tumor growth inhibition rate. TGI (%)=[(1−(average tumor volume at the end of administration of a treatment group−average tumor volume at the beginning of administration of this treatment group))/(average tumor volume at the end of treatment in the solvent control group−average tumor volume at the beginning of treatment of the solvent control group)]×100%.

[5] = intravenous injection 2 mg/kg, read-out: Exposure of AUC
[6] = intravenous injection 2 mg/kg, read-out: Vdss
[7] = Day 14, oral once a day, 0-7 days 10 mg/kg, 8-21 days 40 mg/kg

T1 sequence (P00533 25-1210): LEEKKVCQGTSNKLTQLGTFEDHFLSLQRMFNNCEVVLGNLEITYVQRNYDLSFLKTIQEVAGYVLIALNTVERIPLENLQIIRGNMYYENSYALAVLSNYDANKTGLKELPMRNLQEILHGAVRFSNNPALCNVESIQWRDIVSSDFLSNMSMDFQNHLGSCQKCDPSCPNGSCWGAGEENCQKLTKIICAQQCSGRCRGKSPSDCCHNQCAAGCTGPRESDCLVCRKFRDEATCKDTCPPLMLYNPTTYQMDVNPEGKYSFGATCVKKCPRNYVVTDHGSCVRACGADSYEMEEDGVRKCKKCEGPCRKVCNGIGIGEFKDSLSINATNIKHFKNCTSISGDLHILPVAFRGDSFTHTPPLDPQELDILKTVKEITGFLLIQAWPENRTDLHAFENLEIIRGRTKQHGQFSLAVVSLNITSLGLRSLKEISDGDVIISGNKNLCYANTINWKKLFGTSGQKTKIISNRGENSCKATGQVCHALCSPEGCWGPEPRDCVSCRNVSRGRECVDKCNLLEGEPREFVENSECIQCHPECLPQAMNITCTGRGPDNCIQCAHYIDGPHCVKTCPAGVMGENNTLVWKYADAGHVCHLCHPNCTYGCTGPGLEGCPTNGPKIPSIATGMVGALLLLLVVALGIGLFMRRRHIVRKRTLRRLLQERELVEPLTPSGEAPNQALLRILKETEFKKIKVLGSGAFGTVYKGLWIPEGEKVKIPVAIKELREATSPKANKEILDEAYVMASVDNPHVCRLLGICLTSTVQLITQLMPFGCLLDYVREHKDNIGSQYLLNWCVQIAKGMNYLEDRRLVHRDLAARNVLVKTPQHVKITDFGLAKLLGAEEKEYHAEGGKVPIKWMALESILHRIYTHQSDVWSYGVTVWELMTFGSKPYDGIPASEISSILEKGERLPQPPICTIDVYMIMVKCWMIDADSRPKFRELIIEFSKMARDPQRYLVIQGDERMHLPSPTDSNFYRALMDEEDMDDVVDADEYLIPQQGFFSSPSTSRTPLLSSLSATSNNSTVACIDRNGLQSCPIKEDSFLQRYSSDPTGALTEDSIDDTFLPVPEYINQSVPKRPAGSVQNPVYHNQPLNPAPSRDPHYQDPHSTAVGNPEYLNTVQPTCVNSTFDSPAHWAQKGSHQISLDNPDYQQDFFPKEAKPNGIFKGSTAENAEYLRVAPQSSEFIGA

In the case of C=CC(=O)Nc1cc(Nc2ncc(C(=O)OC(C)C)c(-c3cn(OC)c4ccccc34)n2)c(OC)cc1N(C)CCN(C)C.CS(=O)(=O)O [Compound 1], the pIC50 [1] was 9.41, the clearance ([2]; intravenous injection 2 mg/kg) was 12.7 mL/min/kg and the half-life ([2]; intravenous injection 2 mg/kg) was 8.79 h. The AUC [2, 5] was 3.85 µM·h, the Vd [2, 6] was 7.98 L/kg and the bioavailability ([2]; oral 10 mg/kg) was 53.5%. For the same molecule, the AUC(0-t) ([2]; oral 10 mg/kg) was 10.3 µM·h, the bioavailability ([2]; oral 50 mg/kg) was 36.6% and the AUC(0-t) ([2]; oral 50 mg/kg) was 35.3 µM·h. It also gave a clearance ([3]; intravenous injection 2 mg/kg) of 57.7 mL/min/kg, a half-life ([3]; intravenous injection 2 mg/kg) of 1.76 h and an AUC [3, 5] of 0.884 µM·h. The Vd [3, 6] was 6.95 L/kg, the Cmax ([3]; oral 10 mg/kg) was 300 nM and the Tmax ([3]; oral 10 mg/kg) was 2 h. The bioavailability ([3]; oral 10 mg/kg) was 22.1%, the AUC(0-t) ([3]; oral 10 mg/kg, read-out: Exposure of AUC0-last) was 1.42 µM·h and the “Tumor volume (Day 0)” value ([4]; Day 0 (grouping), mean ± standard error, n = 6) was 133.2 ± 8.2 mm^3. It also gave an RTV [4, 7] of 1.9, a T/C [4, 7] of 14.9% and a TGI [4, 7] of 92.1%. The “Tumor volume (Day 14)” value [4, 7] was 259.1 ± 35.2 mm^3.
